# Test system: T1, recombinant PDA (rPDA) from Variovorax sp. F1
# T1 construct: full-length gene product, 399 residues; 45 kDa band; pET28a NdeI/XhoI (N-terminal His tag), E. coli BL21 (DE3), HisTrap
# Assay: HPLC initial velocity, Michaelis-Menten fit
# Assay type: biochemical
# Settings: 50 mM Tris-HCl pH 7.5, 30 °C
# Excerpt: HPLC initial velocity, Michaelis-Menten fit on recombinant PDA (rPDA) from Variovorax sp.
Compound,Km (deamination to deaminofolic acid),Km (deamination to deaminopteroic acid)
Nc1nc2ncc(CNc3ccc(C(=O)N[C@@H](CCC(=O)O)C(=O)O)cc3)nc2c(=O)[nH]1 [folic acid],280 ± 60 µM,
Nc1nc2ncc(CNc3ccc(C(=O)O)cc3)nc2c(=O)[nH]1 [pteroic acid],,1500 ± 600 µM

# From publication PMC9513972, “Carboxypeptidase G and pterin deaminase metabolic pathways degrade folic acid in Variovorax sp. F1” (BMC Microbiology, 2022)
